From PubChem BioAssay (NCI) come the findings set out here.

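Method: 48-hour compound exposure of cells in 96-well plates, five concentrations, linear interpolation of endpoints. GI50 marks 50% less growth. TGI marks complete inhibition of growth.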

Holding throughout (assay): NCI tumour cell line growth inhibition, 48 h
Test [1] deals with NCI/ADR-RES ovarian.
The test system of test [2] is K-562 leukemia.
Test [3] relates to SK-MEL-28 melanoma.
Test [4] concerns PC-3 prostate.
The subject of test [5] is OVCAR-3 ovarian.
The test system of test [6] is OVCAR-4 ovarian.
Test [7] concerns CCRF-CEM leukemia.
Test [8] deals with NCI-H226 lung.
The test system of test [9] is MOLT-4 leukemia.
Test [10] has as its system HT29 colon.

For `COc1ccc(N2CCN(CC(=O)N3CCN(c4nnc(-c5ccc(Cl)cc5)c(-c5ccc(Cl)cc5)n4)CC3)CC2)cc1`, the GI50 was greater than 100 µM in test [1]; 5.8 µM in [2]; 96.8 µM in test [3]; 6.56 µM in test [4]; 11.3 µM in test [5]; 8.8 µM in test [6]. Also, the GI50 is 12.6 µM in [7], greater than 100 µM in [8], 3.1 µM in test [9] and 4.03 µM in [10]. The TGI in test [1], in [2], in test [3], in [4], in [5] and in [6] was greater than 100 µM each time. Moreover, the TGI is greater than 100 µM in test [7], greater than 100 µM in [8], greater than 100 µM in test [9] and 43.2 µM in test [10].
In the case of `CN(C)CCCn1c2c(c3ccc([N+](=O)[O-])cc3c1=O)C(=O)c1ccccc1-2`, the GI50 is 7.22 µM in [1]; 6.05 µM in [2]; greater than 100 µM in test [3]; 6.06 µM in test [4]; 25.6 µM in test [5]; 27.6 µM in test [6]. Besides, the GI50 was 3.85 µM in [7], 6.82 µM in [8], 0.696 µM in test [9] and 3.76 µM in test [10]. The TGI in test [1] is 34.5 µM; in test [2], greater than 100 µM; in test [3] it was greater than 100 µM; in test [4], greater than 100 µM; in [5], 70.5 µM; in test [6], greater than 100 µM. For the same molecule, the TGI in test [7] was 59 µM; in [8], 24 µM; in test [9], greater than 100 µM; in [10] it was 21.3 µM.
Consider `COc1ccc(/C=C2\CN(Cc3cn(CCCNc4ccnc5cc(Cl)ccc45)nn3)C/C(=C\c3ccc(OC)cc3)C2=O)cc1`, for which the GI50 was 3.15 µM in test [1]; 2.65 µM in [2]; 14 µM in test [3]; 2.9 µM in [4]; 4.91 µM in test [5]; 7.37 µM in test [6]. The GI50 in [7] is 2.39 µM; in test [8] it was 25.5 µM; in test [9], 2.55 µM; in test [10] it was 1.82 µM. Further, the TGI in test [1] worked out at 14.5 µM; in test [2], 11.7 µM; in test [3], 28 µM; in test [4], 17 µM; in test [5], 18.1 µM; in test [6], 28.1 µM. The TGI in [7] is 7.01 µM; in test [8], greater than 100 µM; in test [9], 9.4 µM; in test [10] it was 6.38 µM.
Take `O=C(/C=C/CN1CCCCC1)Nc1cc2c(Nc3ccc(F)c(Cl)c3F)ncnc2cc1OCCOC(F)F`: the GI50 in test [1] is 0.446 µM; in test [2] it was 0.715 µM; in [3] it was 2.27 µM; in test [4] it was 1.68 µM; in test [5], 0.284 µM; in test [6] it was 1.23 µM. Also, the GI50 in test [7] was 2.42 µM; in [8] it was 1.48 µM; in [9] it was 1.15 µM; in test [10] it was 0.919 µM. The TGI in test [1] stood at 3.82 µM; in test [2] it was 8.12 µM; in test [3], 9.19 µM; in [4] it was 8.43 µM; in [5], 2.55 µM; in test [6] it was 13 µM. Besides, the TGI in [7] was found to be 10.7 µM; in test [8], 5.73 µM; in test [9], 5.27 µM; in test [10], 5.77 µM.
`CCCCc1ccc(C(N)=O)nc1`: the GI50 in test [1], in [2], in test [3], in [4], in test [5] and in [6] was greater than 100 µM each time. In addition, the GI50 in [7], in test [8], in [9] and in test [10] was greater than 100 µM throughout. In addition, the TGI in test [1], in [2], in [3], in test [4], in test [5] and in test [6] was greater than 100 µM in each case. Also, the TGI in test [7], in test [8], in [9] and in [10] was greater than 100 µM throughout.
`COc1cc2c(cc1Nc1nc(Nc3ccsc3C(N)=O)c3cc[nH]c3n1)N(C(=O)CN(C)C)CCC2`: the GI50 in test [1] is 4.75 µM; in [2], 0.875 µM; in [3], 1.8 µM; in [4], 1.17 µM; in [5], 0.618 µM; in [6], 2.98 µM. Also, the GI50 in test [7] is 0.162 µM; in test [8] it was 1.12 µM; in test [9], 1.23 µM; in test [10], less than 0.0025 µM. For the same molecule, the TGI is greater than 25 µM in test [1]; 13.7 µM in [2]; 5.69 µM in test [3]; greater than 23.6 µM in test [4]; 2.13 µM in test [5]; 9.03 µM in [6]. In addition, the TGI in test [7] worked out at 9.66 µM; in [8], 7.18 µM; in test [9], 9.6 µM; in [10], 0.681 µM.
Take `COc1c(C)cnc(Cn2cnc3c(Cl)nc(N)nc32)c1C`: the GI50 in test [1] was 0.509 µM; in test [2], 0.187 µM; in test [3], 0.546 µM; in test [4], 0.359 µM; in [5], 0.658 µM; in test [6] it was 7.17 µM. Further, the GI50 is 0.097 µM in test [7], 0.594 µM in [8], 0.281 µM in [9] and 0.0654 µM in test [10]. Moreover, the TGI in [1] is greater than 100 µM; in test [2], greater than 100 µM; in test [3], greater than 83.4 µM; in [4], greater than 100 µM; in test [5], greater than 100 µM; in test [6], greater than 100 µM. Moreover, the TGI in test [7], in [8], in test [9] and in test [10] was greater than 100 µM each time.
Regarding `C#Cc1cccc(NC(=O)Nc2cccc(NC(=O)CCl)c2)c1`, the GI50 was 20.1 µM in [1]; 22.8 µM in [2]; greater than 82.5 µM in test [3]; 37.8 µM in test [4]; 14.6 µM in test [5]; 12 µM in test [6]. Further, the GI50 in test [7] was 10.9 µM; in [8], 21.6 µM; in test [9] it was 12.5 µM; in test [10] it was 17.8 µM. The TGI was 75.7 µM in test [1]; greater than 82.5 µM in [2]; greater than 82.5 µM in test [3]; greater than 82.5 µM in [4]; 36.5 µM in [5]; 29.5 µM in test [6]. In addition, the TGI in test [7] was 68.6 µM; in [8], 75.2 µM; in [9], 81.4 µM; in test [10], 53.5 µM.
`C=CC(=O)N1CC[C@@H](Oc2nc(Nc3ccc(N4CCC(N5CCN(C)CC5)CC4)cc3)c(C(N)=O)nc2CC)C1`: the GI50 in [1], in test [2], in test [3], in test [4], in test [5] and in test [6] was greater than 100 µM throughout. The GI50 in [7], in [8], in test [9] and in [10] was greater than 100 µM throughout. The TGI in [1], in test [2], in [3], in test [4], in test [5] and in test [6] was greater than 100 µM in each case. Further, the TGI in test [7], in test [8], in test [9] and in test [10] was greater than 100 µM each time.
Turning to `COc1cc2c(c(OC)c1OC)-c1c(c3ccc([N+](=O)[O-])cc3c(=O)n1CCCN=[N+]=[N-])C2=O`, the GI50 in [1] was 45.3 µM; in test [2] it was greater than 100 µM; in test [3] it was greater than 100 µM; in test [4] it was greater than 100 µM; in [5], 45.2 µM; in test [6] it was 19.4 µM. Further, the GI50 in [7] was greater than 100 µM; in test [8], 28.4 µM; in [9] it was greater than 100 µM; in [10], 94 µM. For the same molecule, the TGI in [1] is greater than 100 µM; in test [2], greater than 100 µM; in test [3] it was greater than 100 µM; in test [4], greater than 100 µM; in [5] it was greater than 100 µM; in test [6], 60.9 µM. The TGI in [7] is greater than 100 µM; in [8], 71.8 µM; in [9] it was greater than 100 µM; in test [10], greater than 100 µM.
With `C[As](C)SCC(COC(=O)c1ccccc1)OC(=O)c1ccccc1` (centres undefined), the GI50 was 0.152 µM in test [1]; less than 0.0205 µM in test [2]; 0.504 µM in test [3]; 0.358 µM in [4]; 1.74 µM in test [6]; 0.0305 µM in test [7]. The GI50 in [8] is 1.09 µM; in [9] it was 0.013 µM; in test [10], 0.302 µM. In addition, the TGI in test [1] was 0.367 µM; in test [2], 1.22 µM; in test [3], 17.4 µM; in [4], 15.7 µM; in test [5] it was 0.023 µM; in test [6], greater than 32.2 µM. The TGI in test [7] stood at 0.759 µM; in test [8] it was 3.75 µM; in test [9], 0.154 µM; in test [10], 2.26 µM.
In the case of `Cn1c([N+](=O)[O-])cnc1/C=C1\Oc2ccc(Cl)cc2C1=O`, the GI50 was 0.534 µM in test [1]; 0.765 µM in test [2]; 1.14 µM in [3]; 1.12 µM in test [4]; 0.307 µM in test [5]; 1.7 µM in [6]. Also, the GI50 in [7] is 0.199 µM; in test [8], 1.64 µM; in test [9], 0.32 µM; in test [10], 0.254 µM. The TGI in [1] is greater than 22.5 µM; in test [2], greater than 26.9 µM; in test [3], 5.14 µM; in [4] it was 7.1 µM; in test [5] it was 0.952 µM; in [6], 5.71 µM. The TGI was determined as 0.823 µM in test [7], 4.64 µM in [8], 3.32 µM in test [9] and 0.757 µM in [10].
Regarding `Cn1c(N)cc(=O)nc1N`, the TGI in test [1], in [2], in [3], in test [4], in test [5] and in test [6] was greater than 100 µM in each case. Moreover, the TGI in [7], in [8], in test [9] and in [10] was greater than 100 µM throughout.
`CCCCCCn1c(=N)n(CC(O)COc2cccc(C)c2)c2ccccc21` (centres undefined): the GI50 in [1] is 2.82 µM; in test [2], 2.07 µM; in test [3] it was 1.87 µM; in test [4], 2.16 µM; in [5], 2.13 µM; in [6], 2.15 µM. Besides, the GI50 in test [7] is 2.36 µM; in test [8], 3.14 µM; in test [9], 2.39 µM; in test [10] it was 1.73 µM. Moreover, the TGI was 8.89 µM in [1]; 5.28 µM in [2]; 3.51 µM in test [3]; 5.23 µM in test [4]; 4.98 µM in test [5]; 6.27 µM in [6]. Moreover, the TGI in test [7] is 7.14 µM; in test [8], 12.5 µM; in test [9], 6.16 µM; in [10] it was 3.59 µM.
For `CCN(CC)CCC(CNc1c2ccc(Cl)cc2nc2ccc(OC)cc12)c1ccccc1` (centres undefined), the GI50 is 1.28 µM in test [1]; 0.337 µM in test [2]; 1.84 µM in test [3]; 1.96 µM in [4]; 1.71 µM in test [5]; 1.64 µM in test [6]. Further, the GI50 in test [7] was 1.1 µM; in test [8] it was 1.43 µM; in test [9] it was 0.486 µM; in [10], 0.219 µM. In addition, the TGI was found to be 5.12 µM in [1]; 1.28 µM in test [2]; 3.27 µM in test [3]; 6.16 µM in [4]; 4.7 µM in [5]; 4.26 µM in test [6]. Besides, the TGI in test [7] was 5.17 µM; in test [8] it was 4.99 µM; in test [9], 5 µM; in test [10], 0.664 µM.
